Test results reported in patent US12458610B2, “Pharmaceutical composition for treating or preventing diabetic cataract” (KOREA UNIVERSITY RESEARCH AND BUSINESS FOUNDATION, priority 2019, dated 2025).

Key:
Assay type in all cases: in vivo, rat
[1] = Fasting blood sugar level in diabetes model rats, weekly by blood glucose meter; conditions: midodrine 1.0 mg/kg/day in drinking water (OLETF-M1.0), from week 9
From the text: (§1) Otsuka Long-Evans Tokushima Fatty (OLETF) rats were used as a diabetes animal model of rats. The OLETF rats are widely used as a type 2 diabetes animal model because fat accumulation and hyperglycemia are induced in the body of the experimental animals and the pathological condition is similar to that of type 2 diabetes in human. Long-Evans Tokushima Otsuka (LETO) rats were used as a normal control group. The OLETF rats were divided into three groups depending on midodrine intake: OLETF, OLETF-M0.3 and OLETF-M1.0. The OLETF group was raised without intake of midodrine, the OLETF-M0.3 group was made to ingest 0.3 mg of midodrine every day per body weight (midodrine 0.3 mg/kg/day), and the OLETF-M1.0 group was made to ingest 1.0 mg of midodrine every day per body weight (midodrine 1.0 mg/kg/day). Midodrine was dissolved in drinking water so that the rats could ingest the corresponding daily dosage.
(§2) The experimental animals were divided into four groups: LETO, OLETF, OLETF-M0.3 and OLETF-M1.0, and all the experimental animals were raised for 12 weeks. During the 12 weeks, the OLETF-M0.3 group and the OLETF-M1.0 group were made to ingest midodrine every day.

[2] = system: Otsuka Long-Evans Tokushima Fatty (OLETF) rats; experiment: Lens transparency: clarity of graph paper pattern seen through the lens (ImageJ); conditions: midodrine 0.3 mg/kg/day for 12 weeks (OLETF-M0.3), untreated OLETF significantly decreased
From the text: as §1, §2

TNFα = TNFα level in blood (plasma); conditions: OLETF rats, midodrine 0.3 mg/kg/day (OLETF-M0.3); OLETF 10.667±2.732, LETO 7.23±0.722
From the text: as §1, §2

aldose reductase = experiment: Aldose reductase level in lens by ELISA; conditions: OLETF rats, OLETF 38.4±3.1, LETO 37.2±2.8
From the text: as §1, §2
(§3) The levels of aldose reductase, hexokinase and ATP in the lens sample were measured with a spectrophotometer (Spectramax Plus 384; Molecular Devices, Sunnyvale, CA, USA) by ELISA assay.

[3] = Body weight change in diabetes model rats; conditions: OLETF rats; for body weight over time: raising period
From the text: as §1, §2

[4] = system: Otsuka Long-Evans Tokushima Fatty (OLETF) rats; experiment: Onset of cataract in lens by retroillumination imaging (LOCS III C1/P1 or higher); conditions: untreated OLETF 8 out of 12 eyes
From the text: as §1, §2

[5] = system: AMPK (AMP-activated protein kinase); experiment: AMPK level in lens; conditions: OLETF rats, midodrine 0.3 mg/kg/day (OLETF-M0.3); OLETF 0.0509±0.0293 U/mL
hexokinase = experiment: Hexokinase level in lens by ELISA; conditions: OLETF rats, untreated OLETF significantly lower than LETO
From the text: as §1, §2, §3

ATP = ATP level in lens by ELISA; conditions: OLETF rats, OLETF 2.307±0.225, LETO 2.622±0.146
From the text: as §1, §2, §3

[6] = midodrine 0.3 mg/kg/day (OLETF-M0.3)
[7] = midodrine 1.0 mg/kg/day (OLETF-M1.0)

For `COc1ccc(OC)c(C(O)CNC(=O)CN)c1` (racemic) [midodrine, (RS)—N-[2-(2,5-dimethoxyphenyl)-2-hydroxyethyl]glycinamide], which “fasting blood sugar level as compared to the OLETF group” value [1] is on record?
The value was “decreased slightly”.

And the “lens transparency compared with the LETO group” value [2]?
Its value is “no significant difference”.

What about the “level of the inflammatory cytokine TNFα in blood (plasma)” value (TNFα) of the same molecule?
Its value is 5.383 ± 0.984 pg/mL.

What about the “level of aldose reductase in lens” value (aldose reductase; [6]) of the same molecule?
Its value is 33.6±2.6 U/L.

What about the “level of aldose reductase in lens” value (aldose reductase; [7]) of the same molecule?
The value was 34.1±2.8 U/L.

What about the “body weight compared with the LETO group” value ([3]; midodrine 0.3 mg/kg/day (OLETF-M0.3), from week 9) of the same molecule?
Its value is “no significant difference”.

What about the “body weight over time” value ([3]; midodrine 0.3 mg/kg/day in drinking water (OLETF-M0.3)) of the same molecule?
The value was “decreased slightly with time”.

And the “body weight over time” value ([3]; midodrine 1.0 mg/kg/day in drinking water (OLETF-M1.0))?
The value was “decreased slightly with time”.

And the “eyes with cataract observed” value ([4]; midodrine 0.3 mg/kg/day for 12 weeks (OLETF-M0.3))?
The value was 1 out of 10.

What about the “eyes with cataract observed” value ([4]; midodrine 1.0 mg/kg/day for 12 weeks (OLETF-M1.0)) of the same molecule?
Its value is 2 out of 8.

And the “AMPK level in lens as compared to the OLETF group” value [5]?
The value was “significantly increased”.

What about the “hexokinase level in lens as compared to the LETO group” value (hexokinase; [6]) of the same molecule?
The value was “no significant difference”.

And the “hexokinase level in lens as compared to the LETO group” value (hexokinase; [7])?
Its value is “no significant difference”.

What about the “level of ATP in lens” value (ATP; [6]) of the same molecule?
The value was 3.065 ± 0.202 ng/mL.

What about the “level of ATP in lens” value (ATP; [7]) of the same molecule?
Its value is 3.025 ± 0.299 ng/mL.
